Columns and labels:
[1] = target: T1, MTHFD1 recombinant human enzyme (Homo sapiens, UniProt P11586); assay: MTHFD1 inhibition assay (NAD(P)H-Glo luminescence); conditions: MTHFD1 IC50, recombinant human enzyme 200 nM, NADP, band
T1 sequence (P11586 2-291 limits assumed): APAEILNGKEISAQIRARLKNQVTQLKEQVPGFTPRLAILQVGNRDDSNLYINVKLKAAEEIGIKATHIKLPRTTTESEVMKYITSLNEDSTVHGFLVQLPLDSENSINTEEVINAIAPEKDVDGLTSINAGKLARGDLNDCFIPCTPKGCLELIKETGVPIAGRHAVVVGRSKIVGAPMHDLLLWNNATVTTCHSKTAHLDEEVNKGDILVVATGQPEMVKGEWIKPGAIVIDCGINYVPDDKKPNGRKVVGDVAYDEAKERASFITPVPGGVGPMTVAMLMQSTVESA

[2] = target: T2, MTHFD2 recombinant human enzyme (Homo sapiens, UniProt P13995); assay: MTHFD2 inhibition assay (NAD(P)H-Glo luminescence); conditions: for MTHFD1/MTHFD2 IC50 ratio: selectivity of MTHFD2 inhibition over MTHFD1, band
T2 sequence (P13995 36-350): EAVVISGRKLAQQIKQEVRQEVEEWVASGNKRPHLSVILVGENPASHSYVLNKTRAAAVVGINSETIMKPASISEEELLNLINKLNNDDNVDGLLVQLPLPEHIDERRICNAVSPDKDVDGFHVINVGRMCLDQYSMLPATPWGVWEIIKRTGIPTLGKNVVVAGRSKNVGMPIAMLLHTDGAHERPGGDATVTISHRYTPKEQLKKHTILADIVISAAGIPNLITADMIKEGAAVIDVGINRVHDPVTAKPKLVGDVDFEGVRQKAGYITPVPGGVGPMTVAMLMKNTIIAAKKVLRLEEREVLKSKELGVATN

SMILES	IC50 [1]	IC50 [2]	MTHFD1/MTHFD2 IC50 ratio [2]
COC[C@H]1CN(c2cc(C)c3c4c(c(=O)oc3c2C)CN(C(=O)c2ccc(C(=O)NS(=O)(=O)N(C)C)c(N3C5CCC3CC5)c2)CC4)CCN1C [Example 49, (R)-2-(7-azabicyclo[2.2.1]heptan-7-yl)-N-(N,N-dimethylsulfamoyl)-4-(8-(3-(methoxymethyl)-4-methylpiperazin-1-yl)-7,10-dimethyl-5-oxo-1,3,4,5-tetrahydro-2H-chromeno[3,4-c]pyridine-3-carbonyl)benzamide]	1 to 10 nM	1 to 10 nM	F (<3)
COC[C@H]1CN(c2ccc3c4c(c(=O)oc3c2C)CN(C(=O)c2cc(OC3CCC3)c(C(=O)NS(=O)(=O)N3CCCC3)c(C(F)(F)F)c2)CC4)CCN1C [Example 133, (R)-2-cyclobutoxy-4-(8-(3-(methoxymethyl)-4-methylpiperazin-1-yl)-7-methyl-5-oxo-1,3,4,5-tetrahydro-2H-chromeno[3,4-c]pyridine-3-carbonyl)-N-(pyrrolidin-1-ylsulfonyl)-6-(trifluoromethyl)benzamide]	100 to 1000 nM	100 to 1000 nM	G (^ 3 to 9.0)
CCOc1c(C(=O)NS(=O)(=O)N(C2CC2)C2CC2)ccc(C(=O)N2CCc3c(c(=O)oc4c(C)c(N5CCN(C)[C@@H](COC)C5)cc(C)c34)C2)c1F [Example 231]	10 to 100 nM	10 to 100 nM	F (<3)
COC[C@H]1CN(c2cc(C)c3c4c(c(=O)oc3c2C)CN(C(=O)c2ccc(C(=O)NS(=O)(=O)N(C)C(C)C)c(O[C@@H]3C[C@@H]5C[C@@H]5C3)c2F)CC4)CCN1C [Example 36, 2-(((1R,3r,5S)-bicyclo[3.1.0]hexan-3-yl)oxy)-3-fluoro-N-(N-isopropyl-N-methylsulfamoyl)-4-(8-((R)-3-(methoxymethyl)-4-methylpiperazin-1-yl)-7,10-dimethyl-5-oxo-1,3,4,5-tetrahydro-2H-chromeno[3,4-c]pyridine-3-carbonyl)benzamide]	1 to 10 nM	1 to 10 nM	F (<3)
COC[C@H]1CN(c2cc(C)c3c4c(c(=O)oc3c2C)CN(C(=O)c2ccc(C(=O)NS(=O)(=O)C3(C)CC3)c(N3C5CCC3CC5)c2)CC4)CCN1C [Example 48, (R)-2-(7-azabicyclo[2.2.1]heptan-7-yl)-4-(8-(3-(methoxymethyl)-4-methylpiperazin-1-yl)-7,10-dimethyl-5-oxo-1,3,4,5-tetrahydro-2H-chromeno[3,4-c]pyridine-3-carbonyl)-N-((1-methylcyclopropyl)sulfonyl)benzamide]	1 to 10 nM	1 to 10 nM	F (<3)
COC[C@H]1CN(c2ccc3c4c(c(=O)oc3c2C)CN(C(=O)c2ccc(C(=O)NS(=O)(=O)N3CCCC3)c(OC3CCC3)c2F)CC4)CCN1C(C)C [Example 170, (R)-2-cyclobutoxy-3-fluoro-4-(8-(4-isopropyl-3-(methoxymethyl)piperazin-1-yl)-7-methyl-5-oxo-1,3,4,5-tetrahydro-2H-chromeno[3,4-c]pyridine-3-carbonyl)-N-(pyrrolidin-1-ylsulfonyl)benzamide]	100 to 1000 nM	10 to 100 nM	G (^ 3 to 9.0)
CCc1c(C(=O)NS(=O)(=O)N2C3CCC2CC3)ccc(C(=O)N2CCc3c(c(=O)oc4c(C)c(N5CCN(C)[C@@H](COC)C5)cc(C)c34)C2)c1F [Example 242]	100 to 1000 nM	10 to 100 nM	H (>9.0 to 30)
COC[C@H]1CN(c2cc(C)c3c4c(c(=O)oc3c2C)CN(C(=O)c2cc(Cl)c(C(=O)NS(=O)(=O)N(C)C)c(N3CC5CC5C3)c2)CC4)CCN1C (stereo partly drawn) [Example 34, 2-(3-azabicyclo[3.1.0]hexan-3-yl)-6-chloro-N-(N,N-dimethylsulfamoyl)-4-(8-((R)-3-(methoxymethyl)-4-methylpiperazin-1-yl)-7,10-dimethyl-5-oxo-1,3,4,5-tetrahydro-2H-chromeno[3,4-c]pyridine-3-carbonyl)benzamide]	100 to 1000 nM	1 to 10 nM	J (>30)

Second part, the molecule after the results:

IC50 [1]	IC50 [2]	MTHFD1/MTHFD2 IC50 ratio [2]	SMILES
1 to 10 nM	1 to 10 nM	G (^ 3 to 9.0)	COC[C@H]1CN(c2cc(C)c3c4c(c(=O)oc3c2C)CN(C(=O)c2ccc(C(=O)NS(=O)(=O)C3(C)CC3)c(N3CCCC(F)(F)C3)c2)CC4)CCN1C [Example 75, (R)-2-(3,3-difluoropiperidin-1-yl)-4-(8-(3-(methoxymethyl)-4-methylpiperazin-1-yl)-7,10-dimethyl-5-oxo-1,3,4,5-tetrahydro-2H-chromeno[3,4-c]pyridine-3-carbonyl)-N-((1-methylcyclopropyl)sulfonyl)benzamide]
10 to 100 nM	10 to 100 nM	F (<3)	COC[C@H]1CN(c2cc(C)c3c4c(c(=O)oc3c2C)CN(C(=O)c2ccc(C(=O)NS(=O)(=O)N3CCCC3)c(OCC(F)(F)F)c2F)CC4)CCN1C [Example 206, (R)-3-fluoro-4-(8-(3-(methoxymethyl)-4-methylpiperazin-1-yl)-7,10-dimethyl-5-oxo-1,3,4,5-tetrahydro-2H-chromeno[3,4-c]pyridine-3-carbonyl)-N-(pyrrolidin-1-ylsulfonyl)-2-(2,2,2-trifluoroethoxy)benzamide]
> 5000 nM	100 to 1000 nM	H (>9.0 to 30)	COC[C@H]1CN(c2ccc3c4c(c(=O)oc3c2C)CN(C(=O)c2cc(N3CC5CC5C3)c(C(=O)NS(=O)(=O)C3(C)CC3)c(C(F)(F)F)c2)CC4)CCN1C (stereo partly drawn) [Example 104, 2-(3-azabicyclo[3.1.0]hexan-3-yl)-4-(8-((R)-3-(methoxymethyl)-4-methylpiperazin-1-yl)-7-methyl-5-oxo-1,3,4,5-tetrahydro-2H-chromeno[3,4-c]pyridine-3-carbonyl)-N-((1-methylcyclopropyl)sulfonyl)-6-(trifluoromethyl)benzamide]
> 5000 nM	100 to 1000 nM	H (>9.0 to 30)	COC[C@H]1CN(c2ccc3c4c(c(=O)oc3c2C)CN(C(=O)c2cc(N(C)C)c(C(=O)NS(=O)(=O)N3CCC5(CC3)CC5)cc2Cl)CC4)CCN1C [Example 190, (R)-N-((6-azaspiro[2.5]octan-6-yl)sulfonyl)-5-chloro-2-(dimethylamino)-4-(8-(3-(methoxymethyl)-4-methylpiperazin-1-yl)-7-methyl-5-oxo-1,3,4,5-tetrahydro-2H-chromeno[3,4-c]pyridine-3-carbonyl)benzamide]
10 to 100 nM	10 to 100 nM	F (<3)	COC[C@H]1CN(c2cc(C)c3c4c(c(=O)oc3c2C)CN(C(=O)c2ccc(C(=O)NS(=O)(=O)N(C)C)c(OC3C[C@@H]5C[C@@H]5C3)c2)CC4)CCN1C (mixture of isomers) [Example 108, 2-(bicyclo[3.1.0]hexan-3-yloxy)-N-(N,N-dimethylsulfamoyl)-4-(8-((R)-3-(methoxymethyl)-4-methylpiperazin-1-yl)-7,10-dimethyl-5-oxo-1,3,4,5-tetrahydro-2H-chromeno[3,4-c]pyridine-3-carbonyl)benzamide]
10 to 100 nM	10 to 100 nM	F (<3)	CCOc1c(C(=O)NS(=O)(=O)N2CC3(CCC3)C2)ccc(C(=O)N2CCc3c(c(=O)oc4c(C)c(N5CCN(C)[C@@H](COC)C5)cc(C)c34)C2)c1F [Example 233]
1000 to 5000 nM	100 to 1000 nM	H (>9.0 to 30)	COC[C@H]1CN(c2ccc3c4c(c(=O)oc3c2C)CN(C(=O)c2cc(OC3CCCC3)c(C(=O)NS(=O)(=O)N(C)C)c(C(F)(F)F)c2)CC4)CCN1C [Example 117, (R)-2-(cyclopentyloxy)-N-(N,N-dimethylsulfamoyl)-4-(8-(3-(methoxymethyl)-4-methylpiperazin-1-yl)-7-methyl-5-oxo-1,3,4,5-tetrahydro-2H-chromeno[3,4-c]pyridine-3-carbonyl)-6-(trifluoromethyl)benzamide]
10 to 100 nM	1 to 10 nM	F (<3)	CCOc1c(C(=O)NS(=O)(=O)N(C)C)ccc(C(=O)N2CCc3c(c(=O)oc4c(C)c(N5CCN(C)[C@@H](COC)C5)cc(C)c34)C2)c1F [Example 146, (R)-N-(N,N-dimethylsulfamoyl)-2-ethoxy-3-fluoro-4-(8-(3-(methoxymethyl)-4-methylpiperazin-1-yl)-7,10-dimethyl-5-oxo-1,3,4,5-tetrahydro-2H-chromeno[3,4-c]pyridine-3-carbonyl)benzamide]
1 to 10 nM	1 to 10 nM	F (<3)	COC[C@H]1CN(c2cc(C)c3c4c(c(=O)oc3c2C)CN(C(=O)c2ccc(C(=O)NS(=O)(=O)N(C)C)c(OC3CCCC3)c2F)CC4)CCN1C [Example 43, (R)-2-(cyclopentyloxy)-N-(N,N-dimethylsulfamoyl)-3-fluoro-4-(8-(3-(methoxymethyl)-4-methylpiperazin-1-yl)-7,10-dimethyl-5-oxo-1,3,4,5-tetrahydro-2H-chromeno[3,4-c]pyridine-3-carbonyl)benzamide]
100 to 1000 nM	10 to 100 nM	H (>9.0 to 30)	COC[C@H]1CN(c2cc(C)c3c4c(c(=O)oc3c2C)CN(C(=O)c2ccc(C(=O)NS(=O)(=O)N(C)C3CCCC3)c(OC)c2F)CC4)CCN1C [Example 238]

Reference: US12662489B2 (Sitryx Therapeutics Limited, priority 2023, dated 2026)
